Test results as given in the supplement of paper PMC10307832.

Key:
Experiment in all cases: relative viability (nuclei count vs DMSO), 5 days (fraction); higher = more cells survive
LC-2-ad = tested on: LC-2-ad
How it was run: (§1)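 Lung cancer cell lines, seeded in 1536-well plates, were treated the following day by pin tool with a single drug or with five library-drug doses (not always all listed) in √10 steps on top of a fixed anchor-drug dose. Cells were fixed and nuclei stained in one step after 5 days, and nuclei were counted. Relative viability is the nuclei count for treated wells divided by that for vehicle wells, reported as medians of duplicate plates.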

EKVX = tested on: EKVX
How it was run: as §1

EMC-BAC-2 = tested on: EMC-BAC-2
How it was run: as §1

ABC-1 = tested on: ABC-1
How it was run: as §1

NCI-H1793 = tested on: NCI-H1793
How it was run: as §1

COR-L 105 = tested on: COR-L 105
How it was run: as §1

NCI-H2126 = tested on: NCI-H2126
How it was run: as §1

NCI-H1755 = tested on: NCI-H1755
How it was run: as §1

NCI-H596 = tested on: NCI-H596
How it was run: as §1

H3255 = tested on: H3255
How it was run: as §1

NCI-H2009 = tested on: NCI-H2009
How it was run: as §1

PC-14 = tested on: PC-14
How it was run: as §1

SW 900 = tested on: SW 900
How it was run: as §1

UMC-11 = tested on: UMC-11
How it was run: as §1

LCLC-103H = tested on: LCLC-103H
How it was run: as §1

NCI-H2087 = tested on: NCI-H2087
How it was run: as §1

NCI-H1395 = tested on: NCI-H1395
How it was run: as §1

NCI-H1651 = tested on: NCI-H1651
How it was run: as §1

CAL-12T = tested on: CAL-12T
How it was run: as §1

NCI-H2023 = tested on: NCI-H2023
How it was run: as §1

NCI-H661 = tested on: NCI-H661
How it was run: as §1

RERF-LC-KJ = tested on: RERF-LC-KJ
How it was run: as §1

With C=C1C(=O)O[C@@H](CCCCCCCC)[C@@H]1C(=O)O [C-75] + Cc1nc(Nc2ncc(C(=O)Nc3c(C)cccc3Cl)s2)cc(N2CCN(CCO)CC2)n1 [Dasatinib] (partner 0.075 µM) as the compound, how does the relative viability (LC-2-ad; first compound 0.08 µM) read?
The relative viability was 0.491.

What about the relative viability (LC-2-ad; first compound 0.253 µM) of the same compound?
The relative viability was 0.521.

What about the relative viability (LC-2-ad; first compound 0.8 µM) of the same compound?
The relative viability was 0.468.

And the relative viability (LC-2-ad; first compound 2.53 µM)?
Its relative viability is 0.455.

And the relative viability (LC-2-ad; first compound 8 µM)?
The relative viability was 0.4.

What about the relative viability (EKVX; first compound 0.08 µM) of the same compound?
The relative viability was 0.535.

What about the relative viability (EKVX; first compound 0.253 µM) of the same compound?
Its relative viability is 0.584.

What about the relative viability (EKVX; first compound 0.8 µM) of the same compound?
Its relative viability is 0.564.

What about the relative viability (EKVX; first compound 8 µM) of the same compound?
The relative viability was 0.481.

What about the relative viability (EMC-BAC-2; first compound 0.08 µM) of the same compound?
The relative viability was 0.37.

And the relative viability (EMC-BAC-2; first compound 0.253 µM)?
Its relative viability is 0.313.

What about the relative viability (EMC-BAC-2; first compound 0.8 µM) of the same compound?
The relative viability was 0.283.

And the relative viability (EMC-BAC-2; first compound 2.53 µM)?
The relative viability was 0.261.

And the relative viability (EMC-BAC-2; first compound 8 µM)?
The relative viability was 0.276.

And the relative viability (ABC-1; first compound 0.08 µM)?
Its relative viability is 0.729.

What about the relative viability (ABC-1; first compound 0.253 µM) of the same compound?
Its relative viability is 0.613.

What about the relative viability (ABC-1; first compound 0.8 µM) of the same compound?
The relative viability was 0.566.

What about the relative viability (ABC-1; first compound 2.53 µM) of the same compound?
Its relative viability is 0.585.

What about the relative viability (ABC-1; first compound 8 µM) of the same compound?
The relative viability was 0.388.

And the relative viability (NCI-H1793; first compound 0.08 µM)?
Its relative viability is 0.399.

What about the relative viability (NCI-H1793; first compound 0.253 µM) of the same compound?
Its relative viability is 0.373.

And the relative viability (NCI-H1793; first compound 0.8 µM)?
Its relative viability is 0.32.

And the relative viability (NCI-H1793; first compound 2.53 µM)?
Its relative viability is 0.352.

And the relative viability (NCI-H1793; first compound 8 µM)?
The relative viability was 0.373.

And the relative viability (COR-L 105; first compound 0.08 µM)?
The relative viability was 0.401.

And the relative viability (COR-L 105; first compound 0.253 µM)?
The relative viability was 0.243.

What about the relative viability (COR-L 105; first compound 0.8 µM) of the same compound?
Its relative viability is 0.358.

And the relative viability (COR-L 105; first compound 2.53 µM)?
The relative viability was 0.338.

What about the relative viability (COR-L 105; first compound 8 µM) of the same compound?
Its relative viability is 0.303.

What about the relative viability (NCI-H2126; first compound 0.08 µM) of the same compound?
Its relative viability is 0.665.

What about the relative viability (NCI-H2126; first compound 0.253 µM) of the same compound?
Its relative viability is 0.657.

What about the relative viability (NCI-H2126; first compound 0.8 µM) of the same compound?
Its relative viability is 0.576.

And the relative viability (NCI-H2126; first compound 2.53 µM)?
Its relative viability is 0.448.

And the relative viability (NCI-H2126; first compound 8 µM)?
The relative viability was 0.586.

What about the relative viability (NCI-H1755; first compound 0.08 µM) of the same compound?
The relative viability was 0.42.

What about the relative viability (NCI-H1755; first compound 0.253 µM) of the same compound?
Its relative viability is 0.33.

What about the relative viability (NCI-H1755; first compound 0.8 µM) of the same compound?
The relative viability was 0.404.

What about the relative viability (NCI-H1755; first compound 2.53 µM) of the same compound?
The relative viability was 0.259.

And the relative viability (NCI-H1755; first compound 8 µM)?
Its relative viability is 0.43.

And the relative viability (NCI-H596; first compound 0.08 µM)?
Its relative viability is 0.764.

And the relative viability (NCI-H596; first compound 0.253 µM)?
The relative viability was 0.669.

And the relative viability (NCI-H596; first compound 0.8 µM)?
The relative viability was 0.6.

What about the relative viability (NCI-H596; first compound 2.53 µM) of the same compound?
Its relative viability is 0.446.

What about the relative viability (NCI-H596; first compound 8 µM) of the same compound?
The relative viability was 0.616.

What about the relative viability (H3255; first compound 0.08 µM) of the same compound?
Its relative viability is 0.382.

And the relative viability (H3255; first compound 0.253 µM)?
The relative viability was 0.371.

And the relative viability (H3255; first compound 0.8 µM)?
The relative viability was 0.337.

What about the relative viability (H3255; first compound 2.53 µM) of the same compound?
The relative viability was 0.327.

What about the relative viability (H3255; first compound 8 µM) of the same compound?
Its relative viability is 0.437.

What about the relative viability (NCI-H2009; first compound 0.08 µM) of the same compound?
The relative viability was 0.303.

And the relative viability (NCI-H2009; first compound 0.253 µM)?
Its relative viability is 0.219.

What about the relative viability (NCI-H2009; first compound 0.8 µM) of the same compound?
Its relative viability is 0.281.

And the relative viability (NCI-H2009; first compound 2.53 µM)?
Its relative viability is 0.228.

And the relative viability (NCI-H2009; first compound 8 µM)?
Its relative viability is 0.203.

What about the relative viability (PC-14; first compound 0.08 µM) of the same compound?
Its relative viability is 0.292.

And the relative viability (PC-14; first compound 0.253 µM)?
Its relative viability is 0.227.

What about the relative viability (PC-14; first compound 0.8 µM) of the same compound?
Its relative viability is 0.27.

And the relative viability (PC-14; first compound 2.53 µM)?
Its relative viability is 0.272.

What about the relative viability (PC-14; first compound 8 µM) of the same compound?
The relative viability was 0.222.

And the relative viability (SW 900; first compound 0.08 µM)?
The relative viability was 0.531.

And the relative viability (SW 900; first compound 0.253 µM)?
Its relative viability is 0.796.

What about the relative viability (SW 900; first compound 0.8 µM) of the same compound?
Its relative viability is 0.829.

What about the relative viability (SW 900; first compound 2.53 µM) of the same compound?
The relative viability was 0.548.

And the relative viability (SW 900; first compound 8 µM)?
The relative viability was 0.449.

And the relative viability (UMC-11; first compound 0.08 µM)?
Its relative viability is 0.43.

What about the relative viability (UMC-11; first compound 0.253 µM) of the same compound?
Its relative viability is 0.547.

And the relative viability (UMC-11; first compound 0.8 µM)?
The relative viability was 0.389.

What about the relative viability (UMC-11; first compound 2.53 µM) of the same compound?
Its relative viability is 0.433.

What about the relative viability (UMC-11; first compound 8 µM) of the same compound?
Its relative viability is 0.376.

And the relative viability (LCLC-103H; first compound 0.08 µM)?
Its relative viability is 0.445.

What about the relative viability (LCLC-103H; first compound 0.253 µM) of the same compound?
The relative viability was 0.451.

And the relative viability (LCLC-103H; first compound 0.8 µM)?
The relative viability was 0.511.

What about the relative viability (LCLC-103H; first compound 2.53 µM) of the same compound?
Its relative viability is 0.351.

What about the relative viability (LCLC-103H; first compound 8 µM) of the same compound?
The relative viability was 0.524.

And the relative viability (NCI-H2087; first compound 0.08 µM)?
The relative viability was 0.88.

What about the relative viability (NCI-H2087; first compound 0.253 µM) of the same compound?
Its relative viability is 1.06.

What about the relative viability (NCI-H2087; first compound 0.8 µM) of the same compound?
The relative viability was 0.66.

And the relative viability (NCI-H2087; first compound 2.53 µM)?
The relative viability was 0.829.

What about the relative viability (NCI-H2087; first compound 8 µM) of the same compound?
Its relative viability is 0.865.

What about the relative viability (NCI-H1395; first compound 0.08 µM) of the same compound?
The relative viability was 0.396.

What about the relative viability (NCI-H1395; first compound 0.253 µM) of the same compound?
Its relative viability is 0.388.

And the relative viability (NCI-H1395; first compound 0.8 µM)?
The relative viability was 0.42.

And the relative viability (NCI-H1395; first compound 2.53 µM)?
The relative viability was 0.407.

What about the relative viability (NCI-H1395; first compound 8 µM) of the same compound?
The relative viability was 0.477.

What about the relative viability (NCI-H1651; first compound 0.08 µM) of the same compound?
The relative viability was 0.484.

What about the relative viability (NCI-H1651; first compound 0.253 µM) of the same compound?
The relative viability was 0.339.

And the relative viability (NCI-H1651; first compound 0.8 µM)?
Its relative viability is 0.364.

What about the relative viability (NCI-H1651; first compound 2.53 µM) of the same compound?
Its relative viability is 0.362.

What about the relative viability (NCI-H1651; first compound 8 µM) of the same compound?
The relative viability was 0.413.

And the relative viability (CAL-12T; first compound 0.08 µM)?
The relative viability was 0.391.

What about the relative viability (CAL-12T; first compound 0.253 µM) of the same compound?
Its relative viability is 0.393.

And the relative viability (CAL-12T; first compound 0.8 µM)?
The relative viability was 0.432.

What about the relative viability (CAL-12T; first compound 2.53 µM) of the same compound?
The relative viability was 0.317.

And the relative viability (CAL-12T; first compound 8 µM)?
Its relative viability is 0.303.

What about the relative viability (NCI-H2023; first compound 0.08 µM) of the same compound?
The relative viability was 0.639.

And the relative viability (NCI-H2023; first compound 0.253 µM)?
The relative viability was 0.471.

And the relative viability (NCI-H2023; first compound 0.8 µM)?
The relative viability was 0.458.

And the relative viability (NCI-H2023; first compound 2.53 µM)?
The relative viability was 0.425.

And the relative viability (NCI-H2023; first compound 8 µM)?
Its relative viability is 0.472.

What about the relative viability (NCI-H661; first compound 0.08 µM) of the same compound?
The relative viability was 0.839.

And the relative viability (NCI-H661; first compound 0.253 µM)?
Its relative viability is 0.795.

And the relative viability (NCI-H661; first compound 0.8 µM)?
Its relative viability is 0.857.

What about the relative viability (NCI-H661; first compound 2.53 µM) of the same compound?
Its relative viability is 0.856.

What about the relative viability (NCI-H661; first compound 8 µM) of the same compound?
Its relative viability is 0.746.

What about the relative viability (RERF-LC-KJ; first compound 0.08 µM) of the same compound?
Its relative viability is 0.917.

What about the relative viability (RERF-LC-KJ; first compound 0.253 µM) of the same compound?
Its relative viability is 0.901.

And the relative viability (RERF-LC-KJ; first compound 0.8 µM)?
The relative viability was 0.819.

And the relative viability (RERF-LC-KJ; first compound 2.53 µM)?
The relative viability was 0.682.

What about the relative viability (RERF-LC-KJ; first compound 8 µM) of the same compound?
Its relative viability is 0.798.
